Source: ChEMBL document CHEMBL3102837, “Synthesis of novel indenoquinoxaline derivatives as potent α-glucosidase inhibitors” (Bioorg Med Chem, 2014)
pIC50: −log10 of the molar value. The source made the active and inactive calls. The rule behind the calls is not given here.

Tests used:
[1] = biological target: T1, Tyrosinase (Homo sapiens) (UniProt P14679); test: Inhibition of tyrosinase (unknown origin)
T1 sequence (whole entry): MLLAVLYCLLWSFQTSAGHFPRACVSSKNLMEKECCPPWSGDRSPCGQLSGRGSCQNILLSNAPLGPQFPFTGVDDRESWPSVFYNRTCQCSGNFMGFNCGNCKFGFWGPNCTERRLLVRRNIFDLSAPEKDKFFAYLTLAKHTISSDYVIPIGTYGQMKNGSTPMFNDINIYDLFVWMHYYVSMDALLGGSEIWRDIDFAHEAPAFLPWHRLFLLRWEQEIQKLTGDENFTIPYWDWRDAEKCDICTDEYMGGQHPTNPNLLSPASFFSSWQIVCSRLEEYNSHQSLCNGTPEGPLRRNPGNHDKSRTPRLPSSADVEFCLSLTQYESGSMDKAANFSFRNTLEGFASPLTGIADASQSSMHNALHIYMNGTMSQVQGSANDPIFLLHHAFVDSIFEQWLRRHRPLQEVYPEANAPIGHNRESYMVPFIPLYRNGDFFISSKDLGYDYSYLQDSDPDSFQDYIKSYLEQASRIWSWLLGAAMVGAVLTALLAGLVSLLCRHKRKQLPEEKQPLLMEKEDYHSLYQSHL

Homo sapiens = species: Homo sapiens; test: Inhibition of alpha-chymotrypsin (unknown origin)
Alpha-glucosidase MAL12 = Alpha-glucosidase MAL12 (Saccharomyces cerevisiae S288c, UniProt P53341); test: Inhibition of Saccharomyces cerevisiae alpha-glucosidase using p-nitrophenyl-alpha-D-glucopyranoside as substrate preincubated for 10 mins measured after 30 mins; details: for pIC50: read-out: IC50
Sequence of Alpha-glucosidase MAL12 (P53341 whole entry): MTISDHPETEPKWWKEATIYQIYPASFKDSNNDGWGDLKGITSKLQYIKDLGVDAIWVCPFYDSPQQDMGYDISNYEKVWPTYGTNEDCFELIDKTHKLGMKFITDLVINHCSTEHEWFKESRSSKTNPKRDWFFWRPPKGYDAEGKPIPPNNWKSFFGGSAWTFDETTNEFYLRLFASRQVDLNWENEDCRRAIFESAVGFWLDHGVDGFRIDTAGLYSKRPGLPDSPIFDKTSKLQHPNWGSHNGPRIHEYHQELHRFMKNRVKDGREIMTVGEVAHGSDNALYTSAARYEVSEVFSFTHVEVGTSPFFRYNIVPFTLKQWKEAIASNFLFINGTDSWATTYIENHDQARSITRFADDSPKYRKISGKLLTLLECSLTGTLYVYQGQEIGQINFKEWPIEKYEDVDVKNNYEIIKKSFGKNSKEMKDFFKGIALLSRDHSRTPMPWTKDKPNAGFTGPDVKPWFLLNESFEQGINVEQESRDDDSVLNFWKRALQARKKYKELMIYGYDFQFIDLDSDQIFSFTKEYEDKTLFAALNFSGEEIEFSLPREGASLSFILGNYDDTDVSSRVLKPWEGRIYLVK

inhibition [1] | inhibition (Homo sapiens) | pIC50 (Alpha-glucosidase MAL12) | IC50 (Alpha-glucosidase MAL12) | SMILES
inactive | Active | 4.63 | – | O=C(N/N=C1/c2ccccc2-c2nc3ccccc3nc21)c1ccccc1[N+](=O)[O-]
inactive | Active | 3.98 | – | O=C(N/N=C1/c2ccccc2-c2nc3ccccc3nc21)c1cccc(Cl)c1
inactive | Active | 3.95 | – | O=C(N/N=C1/c2ccccc2-c2nc3ccccc3nc21)c1cccc(Br)c1
inactive | Active | 4.64 | – | O=C(N/N=C1/c2ccccc2-c2nc3ccccc3nc21)c1ccccc1Br
inactive | Active | 4.74 | – | c1ccc2c(c1)/C(=N/N=C1\c3ccccc3-c3nc4ccccc4nc31)c1nc3ccccc3nc1-2
inactive | Active | – | Not Active | COc1ccc(C(=O)N/N=C2/c3ccccc3-c3nc4ccccc4nc32)cc1O
inactive | Active | 4.53 | – | O=C(N/N=C1/c2ccccc2-c2nc3ccccc3nc21)c1ccc([N+](=O)[O-])cc1
inactive | Active | 4.42 | – | O=C(N/N=C1/c2ccccc2-c2nc3ccccc3nc21)c1ccc(I)cc1
inactive | Active | 4.21 | – | Nc1ccccc1C(=O)N/N=C1/c2ccccc2-c2nc3ccccc3nc21
inactive | Active | 4.11 | – | O=C(N/N=C1/c2ccccc2-c2nc3ccccc3nc21)c1cccc(I)c1
inactive | Active | 4.59 | – | O=C(N/N=C1/c2ccccc2-c2nc3ccccc3nc21)c1ccccc1Cl
inactive | Active | – | Not Active | O=C(N/N=C1/c2ccccc2-c2nc3ccccc3nc21)c1ccccc1
inactive | Active | 4.27 | – | O=C(N/N=C1/c2ccccc2-c2nc3ccccc3nc21)c1ccc(F)cc1
inactive | Active | 4.00 | – | O=C(N/N=C1/c2ccccc2-c2nc3ccccc3nc21)c1ccc(Cl)cc1
inactive | Active | 4.64 | – | O=C(N/N=C1/c2ccccc2-c2nc3ccccc3nc21)c1ccc(Br)cc1
inactive | Active | < 3.30 | – | Cc1ccc(C(=O)N/N=C2/c3ccccc3-c3nc4ccccc4nc32)cc1
inactive | Active | 3.99 | – | O=C(N/N=C1/c2ccccc2-c2nc3ccccc3nc21)c1ccc(O)cc1
– | – | 4.20 | – | O=C1c2ccccc2-c2nc3ccccc3nc21
inactive | Active | 4.04 | – | O=C(N/N=C1/c2ccccc2-c2nc3ccccc3nc21)c1cccc(F)c1
